Experimental data published in US11046670B2, “Piperazinyl norbenzomorphan compounds and methods for using the same” (priority 2015, dated 2021).
Where two headings read alike, the source gives them in different places.

Columns and labels:
[1] = target: T1, sigma 2 receptor (Rattus norvegicus (Rat), UniProt Q5U3Y7); conditions: for Ki(σ1)/Ki(σ2): selectivity σ2 over σ1; for Ki: read-out: σ2 Ki
Protocol: (§1) Sigma-2 receptor ligands and their binding assays. […] The compounds were dissolved in 100% DMSO prior to the receptor binding assays, which were performed by the Psychoactive Drug Screening Program (PDSP) at Chapel Hill, N.C. […] Briefly, Sig2Rs were sourced from rat liver homogenates (PC12 cells). The Sig2R ligand binding affinity was determined through competition binding assays using the radioligand [^3H]-ditolylguanidine in the presence of (+)-pentazocine to block Sig1R binding sites. The radioactivity in the presence of the test compound is calculated with the following equation and expressed as a percent inhibition: % inhibition=(sample CPM non-specific CPM)/(Total CPM non-specific CPM)×100 where
(§2) CPM stands for counts per minute. To determine secondary binding data, CPM/well are pooled and fitted to a three parameter logistic function for competition binding in Prism v 5.0 to determine IC50 values, which are converted to K, according to the Cheng-Prusoff equation.
(§3) Receptor binding assays were performed by the Psychoactive Drug Screening Program (PDSP) at Chapel Hill, N.C. […] Briefly, Sig1Rs and Sig2Rs were sourced from homogenates of Guinea pig brains and rat livers, respectively. Assessment of Sig1R binding affinity was determined via competition binding assays with the radioligand [3H]-(+)-pentazocine. Sig2R binding affinity was determined through competition binding assays using the radioligand [3H]-ditolylguanidine in the presence of (+)-pentazocine to block Sig1R binding sites. […] The radioactivity in the presence of the test compound is calculated with the following equation and expressed as a percent inhibition: % inhibition=(sample CPM non-specific CPM)/Total CPM−non-specific CPM)×100. The normalization process is carried out in Prism or Excel. To determine secondary binding results, CPM/well are pooled and fitted to a three parameter logistic function for competition binding in Prism v 5.0 to determine IC50 values, which are converted to Ki according to the Cheng-Prusoff equation.

[2] = target: T2, sigma 1 receptor (Cavia porcellus (Guinea pig), UniProt Q60492); assay: biochemical; conditions: for inhibition at 10 µM: read-out: σ1 inhibition of radioligand binding
T2 sequence (Q60492 whole entry): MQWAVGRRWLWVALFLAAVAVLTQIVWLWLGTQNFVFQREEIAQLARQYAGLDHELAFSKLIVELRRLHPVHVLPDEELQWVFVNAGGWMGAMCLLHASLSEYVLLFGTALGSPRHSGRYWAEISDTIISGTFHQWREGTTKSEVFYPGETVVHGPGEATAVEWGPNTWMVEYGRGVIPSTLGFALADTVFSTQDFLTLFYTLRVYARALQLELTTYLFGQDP
Protocol: as §3

[3] = target: T1, sigma 2 receptor; assay: biochemical; conditions: for inhibition at 10 µM: read-out: σ2 inhibition of radioligand binding
Protocol: as §1, §2, §3

[4] = target: T2, sigma 1 receptor; conditions: for Ki: read-out: σ1 Ki
Protocol: as §3

[5] = test system: Wild-type mice (C57BL/6) subjected to Blast (brain injury); assay: Traumatic Brain Injury, Barnes Maze after blast; type: in vivo; conditions: seven days of daily treatment beginning the day after injury, compared to Veh
Source text: FIG. 9 Traumatic Brain Injury treatment; Barnes Maze (spatial and long term memory) after blast; Wild-type mice (C57BL/6) were subjected to either a Blast (brain injury) or Sham blast (no brain injury).

[6] = test system: Wild-type mice (C57BL/6) subjected to Blast (brain injury); assay: Traumatic Brain Injury, Morris Water Maze after blast; type: in vivo; conditions: seven days of daily treatment beginning the day after injury, compared to Veh
Source text: FIG. 10 Traumatic Brain Injury treatment; Morris Water Maze (spatial and long term memory) after blast; Wild-type mice (C57BL/6) were subjected to either a Blast (brain injury) or Sham blast (no brain injury).

[7] = target: σ2R (Homo sapiens (Human), UniProt Q5BJF2); conditions: cited from earlier work
Sequence of σ2R (Q5BJF2 whole entry): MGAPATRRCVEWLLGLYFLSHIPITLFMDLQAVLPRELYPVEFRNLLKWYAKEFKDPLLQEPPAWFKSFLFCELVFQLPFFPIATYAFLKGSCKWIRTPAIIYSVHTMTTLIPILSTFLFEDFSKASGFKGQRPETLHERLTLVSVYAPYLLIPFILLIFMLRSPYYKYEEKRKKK

[8] = test system: neuroblastoma cells; assay: Calcium ion levels in neuroblastoma cells; type: cell-based
[9] = test system: proinflammatory cytokines (IL-1β, TNFα, CD14); assay: Brain levels of proinflammatory cytokines in transgenic mice; type: in vivo; conditions: Thy1-APPLond/Swe+ mice, 60 days of treatment (30 mg/kg)
[10] = test system: Murine hippocampal neuron slices; assay: Synaptic long term depression in hippocampal neuron slices
Source text: FIG. 13 Effect of SAS-0132 on Synaptic Long Term Depression (inhibition); effect of SAS-0132 on dihydroxyphenylglycine (DHPG) mediated increase in long term depression (LTD).

[11] = test system: neuroblastoma cells; assay: MTT Assay in Neuroblastoma Cells
Protocol: FIG. 15 MTT Assay in Neuroblastoma Cells; Sigma 2 receptor binding ligands were evaluated for effects in neuroblastoma cells.
FIG. 16 MTT Assay in Neuroblastoma Cells; Sigma 2 receptor binding ligands were evaluated for effects in neuroblastoma cells.

T1 sequence (Q5U3Y7 whole entry): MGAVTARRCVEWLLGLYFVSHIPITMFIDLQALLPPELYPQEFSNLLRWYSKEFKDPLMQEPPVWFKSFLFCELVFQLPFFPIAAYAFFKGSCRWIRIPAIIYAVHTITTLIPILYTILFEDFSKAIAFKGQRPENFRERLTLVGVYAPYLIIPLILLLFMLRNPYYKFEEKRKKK

Row | SMILES | Ki(σ1)/Ki(σ2) [1] | σ1 pKi ± SEM [4] | Ki [4] | σ2 pKi ± SEM [1] | Ki [1] | also measured
1 | Cc1cccc(-c2ccc3c(c2)[C@H]2C[C@H]3CCN2Cc2ccc3c(c2)OCO3)c1 [Compound 44] | 6 | – | – | – | – | Ki ([2]; σ1 Ki (nM)): 4610 nM; Ki ([2]; σ1 pKi ± SEM): 4570 nM; Ki [3]: 828 nM
2 | C=CCOC(=O)N1CC[C@@H]2C[C@@H]1c1cc(N3CCN(C)CC3)ccc12 [Compound 37] | 5 | 5.68 ± 0.07 | 2100 nM | 6.37 ± 0.07 | 442 nM | –
3 | CCCN1CCN(c2ccc3c(c2)C2CC3CCN2C(=O)OCc2ccccc2)CC1 (centres unmarked) [DKR-1516] | – | – | – | – | – | spatial- and long term memory, Barnes Maze [5]: performed significantly better; spatial- and long term memory, Morris Water Maze [6]: performed significantly better
4 | FC(F)(F)c1ccc(-c2ccc3c(c2)[C@H]2C[C@H]3CCN2CCc2ccccc2)cc1 [Compound 42] | 6 | – | 1060 nM | 6.8 ± 0.1 | 166 nM | Ki ([2]; σ1 pKi ± SEM): 1000 nM
5 | CN1CCN(c2ccc3c(c2)C2CC3CCN2C(=O)C2CCCCC2)CC1 (racemic) [(±)-TH-1-106, (±)-Cyclohexyl(8-(4-methylpiperazin-1-yl)-1,3,4,5-tetrahydro-2H-1,5-methanobenzo[c]azepin-2-yl)methanone] | – | – | – | – | – | Ki ([2]; σ1 Ki (nM)): 1420 nM; Ki [3]: 144 nM
6 | O=C(OCc1ccccc1)N1CC[C@@H]2C[C@@H]1c1cc(Cl)ccc12 [Compound 12] | – | – | – | – | – | inhibition at 10 µM [2]: < 50%; inhibition at 10 µM [3]: < 50%
7 | CN1CCN(c2ccc3c(c2)[C@H]2C[C@H]3CCN2)CC1 [Compound 33] | – | – | – | – | – | inhibition at 10 µM [3]: < 50%
8 | OCCN1CCN(CCCN2c3ccccc3C=Cc3ccccc32)CC1 [opipramol] | – | – | – | – | – | affinity for σ2R [7]: appreciable affinity
9 | Cc1cccc(-c2ccc3c(c2)[C@H]2C[C@H]3CCN2C)c1 [Compound 43] | 3 | 6.41 ± 0.08 | 391 nM | 6.88 ± 0.07 | 133 nM | –
10 | CN1CCN(c2ccc3c(c2)[C@H]2C[C@@H]3CCN2C(=O)OCc2ccccc2)CC1 [SAS-0132] | – | – | – | – | – | spatial- and long term memory, Barnes Maze [5]: performed significantly better; DKR-1051-induced calcium response [8]: concentration-dependent attenuation; intracellular Ca2+ concentration ([8]; concentrations up to 30 μM): does not induce significant increases; brain levels of CD14 [9]: not statistically significant; brain levels of IL-1β [9]: significant reduction; brain levels of TNFα [9]: not statistically significant; DHPG-mediated increase in LTD [10]: blocked; concentration at which cytotoxicity begins [11]: around 30 microM; toxicity in MTT assay (in words) [11]: not toxic at low doses
11 | O=C(OCc1ccccc1)N1CC[C@@H]2C[C@@H]1c1cc(N3CCOCC3)ccc12 [Compound 16] | – | – | – | – | – | sigma receptor binding (in words) [1]: did not bind; inhibition at 10 µM [2]: < 50%; inhibition at 10 µM [3]: < 50%
12 | CN1CC[C@@H]2C[C@@H]1c1cc(-c3ccc(C(F)(F)F)cc3)ccc12 [Compound 41] | 4 | 6.81 ± 0.09 | 156 nM | 7.36 ± 0.08 | 43 nM | –

Second part, led by results:

Row | Ki(σ1)/Ki(σ2) [1] | σ1 pKi ± SEM [4] | Ki [4] | σ2 pKi ± SEM [1] | Ki [1] | SMILES | also measured
13 | 3 | 7.21 ± 0.05 | 62 nM | 7.64 ± 0.07 | 23 nM | CC(C)=CCN1CCN(c2ccc3c(c2)[C@H]2C[C@H]3CCN2C(=O)OCc2ccccc2)CC1 [Compound 30] | –
14 | 8 | 5.61 ± 0.06 | 2430 nM | 6.5 ± 0.1 | 318 nM | c1ccc(CN2CC[C@@H]3C[C@@H]2c2cc(N4CCCCC4)ccc23)cc1 [Compound 19] | preference / selectivity for σ2R relative to σ1R [1]: about 8 fold
15 | 1 | 6.53 ± 0.08 | 294 nM | 6.45 ± 0.06 | 357 nM | CN1CCN(c2ccc3c(c2)[C@H]2C[C@H]3CCN2C(=O)CCc2ccccc2)CC1 [Compound 36] | –
16 | 32 | 5.53 ± 0.09 | 2980 nM | – | 92 nM | Clc1cc(Cl)cc(CN2CC[C@@H]3C[C@@H]2c2cc(N4CCOCC4)ccc23)c1 [Compound 39] | preference / selectivity for σ2R relative to σ1R [1]: 32 fold; Ki [3]: 100 nM
17 | – | – | – | 6.12 ± 0.07 | 764 nM | CN1CCN(c2ccc3c(c2)[C@H]2C[C@H]3CCN2S(=O)(=O)c2ccccc2)CC1 [Compound 35] | inhibition at 10 µM [2]: < 50%
18 | 11 | 6.76 ± 0.05 | 172 nM | 7.79 ± 0.05 | 16 nM | C=CCCN1CCN(c2ccc3c(c2)[C@H]2C[C@H]3CCN2C(=O)OCc2ccccc2)CC1 [Compound 29] | –
19 | – | – | – | – | 58 nM | CCCOC(=O)CCN1CCN(c2ccc3c(c2)[C@H]2C[C@H]3CCN2C(=O)OCc2ccccc2)CC1 | –
20 | 4 | 5.34 ± 0.09 | 4540 nM | 5.9 ± 0.1 | 1260 nM | Fc1ccccc1CN1CC[C@@H]2C[C@@H]1c1cc(N3CCOCC3)ccc12 [Compound 40] | preference / selectivity for σ2R relative to σ1R [1]: 4 fold
21 | 5 | – | 3520 nM | – | 746 nM | Clc1cccc(CN2CC[C@@H]3C[C@@H]2c2cc(N4CCCCC4)ccc23)c1 [Compound 38] | Ki ([2]; σ1 pKi ± SEM): 3160 nM; Ki [3]: 794 nM
